# Laboratory results as given in US20260015350A1, “AZAQUINAZOLINE PAN-KRAS INHIBITORS” (Mirati Therapeutics, Inc., priority 2022, published 2026).
# Legend:
# KRas^WT = biological target: T1, KRas^WT (Homo sapiens, UniProt P01116); assay: KRas binding assay (TR-FRET tracer displacement), KRas WT; settings: TR-FRET tracer displacement, KRas WT
# T1 construct: Biotinylated KRas (corresponding to amino acids 1-169, produced at Accelegan Inc.); biotin (biotinylated); purchased Accelegan Inc
# KRas^G12A = biological target: T2, KRas^G12A (Homo sapiens, UniProt P01116, G12A); assay: KRas binding assay (TR-FRET tracer displacement), KRas G12A; settings: TR-FRET tracer displacement, KRas G12A
# T2 construct: Biotinylated KRas (corresponding to amino acids 1-169, produced at Accelegan Inc.); biotin (biotinylated); purchased Accelegan Inc
# KRas^G12C = biological target: T3, KRas^G12C (Homo sapiens, UniProt P01116, G12C); assay: KRas binding assay (TR-FRET tracer displacement), KRas G12C; settings: TR-FRET tracer displacement, KRas G12C
# T3 construct: Biotinylated KRas (corresponding to amino acids 1-169, produced at Accelegan Inc.); biotin (biotinylated); purchased Accelegan Inc
# KRas^G12D = biological target: T4, KRas^G12D (Homo sapiens, UniProt P01116, G12D); assay: KRas binding assay (TR-FRET tracer displacement), KRas G12D
# T4 construct: Biotinylated KRas (corresponding to amino acids 1-169, produced at Accelegan Inc.); biotin (biotinylated); purchased Accelegan Inc
# KRas^G12R = biological target: T5, KRas^G12R (Homo sapiens, UniProt P01116, G12R); assay: KRas binding assay (TR-FRET tracer displacement), KRas G12R
# T5 construct: Biotinylated KRas (corresponding to amino acids 1-169, produced at Accelegan Inc.); biotin (biotinylated); purchased Accelegan Inc
# KRas^G12S = biological target: T6, KRas^G12S (Homo sapiens, UniProt P01116, G12S); assay: KRas binding assay (TR-FRET tracer displacement), KRas G12S; settings: TR-FRET tracer displacement, KRas G12S
# T6 construct: Biotinylated KRas (corresponding to amino acids 1-169, produced at Accelegan Inc.); biotin (biotinylated); purchased Accelegan Inc
# KRas^G12V = biological target: T7, KRas^G12V (Homo sapiens, UniProt P01116, G12V); assay: KRas binding assay (TR-FRET tracer displacement), KRas G12V
# T7 construct: Biotinylated KRas (corresponding to amino acids 1-169, produced at Accelegan Inc.); biotin (biotinylated); purchased Accelegan Inc
# KRas^G13D = biological target: T8, KRas^G13D (Homo sapiens, UniProt P01116, G13D); assay: KRas binding assay (TR-FRET tracer displacement), KRas G13D; settings: TR-FRET tracer displacement, KRas G13D
# T8 construct: Biotinylated KRas (corresponding to amino acids 1-169, produced at Accelegan Inc.); biotin (biotinylated); purchased Accelegan Inc
# KRas^Q61H = biological target: T9, KRas^Q61H (Homo sapiens, UniProt P01116, Q61H); assay: KRas binding assay (TR-FRET tracer displacement), KRas Q61H; settings: TR-FRET tracer displacement, KRas Q61H
# T9 construct: Biotinylated KRas (corresponding to amino acids 1-169, produced at Accelegan Inc.); biotin (biotinylated); purchased Accelegan Inc
# [1] = tested on: KRas-mediated phosphorylation of ERK in MKN1 cells; assay: Inhibition of KRas-mediated phosphorylation of ERK (Cisbio HTRF pERK), MKN1 cells; assay type: cell-based; settings: Homo sapiens, MKN-1
# Procedure, shortened: (§1)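 Overnight culture at 37° C./5% CO2 in RPMI containing 10% FBS, seeded 6,000 cells per well, preceded the assay. A covered 4-hour incubation at room temperature followed, then HTRF signal for phosphorylated ERK was measured.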
# [2] = tested on: KRas-mediated phosphorylation of ERK in PSN1 cells; assay: Inhibition of KRas-mediated phosphorylation of ERK (Cisbio HTRF pERK), PSN1 cells; assay type: cell-based; settings: Homo sapiens
# Procedure, shortened: as §1
# [3] = tested on: KRas-mediated phosphorylation of ERK in AsPC-1 cells; assay: Inhibition of KRas-mediated phosphorylation of ERK (Cisbio HTRF pERK), AsPC-1 cells; assay type: cell-based; settings: Homo sapiens, ASPC1, AsPC-1 cells; HTRF pERK
# Procedure, shortened: (§2)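 H358, H727, H460 and AsPC-1 cells seeded at 6,000/well, treated 3 hrs with 10-dose 3-fold dilutions from 10 uM (0.8% DMSO); 0.2 uM trametinib as min control. Lysed 40 min at 4° C; lysate incubated 2 hrs at room temperature with d2/cryptate antibodies, HTRF read.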
# [4] = tested on: KRas-mediated phosphorylation of ERK in H727 cells; assay: Inhibition of KRas-mediated phosphorylation of ERK (Cisbio HTRF pERK), H727 cells; assay type: cell-based; settings: Homo sapiens, NCI-H727, H727 cells; HTRF pERK
# Procedure, shortened: as §2
# [5] = tested on: KRas-mediated phosphorylation of ERK in A549 cells; assay: Inhibition of KRas-mediated phosphorylation of ERK (Cisbio HTRF pERK), A549 cells; assay type: cell-based; settings: Homo sapiens, HTRF pERK
# Procedure, shortened: (§3)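 Min control wells contained 0.2 uM Trametinib, while test compounds ran as 10 doses (3-fold, top 10 uM; 0.8% DMSO final) on cells for 3 hrs. After 40 mins lysis at 4° C, lysates were probed with HTRF antibodies for 2 hrs at room temperature.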
# [6] = tested on: KRas-mediated phosphorylation of ERK in H460 cells; assay: Inhibition of KRas-mediated phosphorylation of ERK (Cisbio HTRF pERK), H460 cells; assay type: cell-based; settings: Homo sapiens, NCI-H460, HTRF pERK
# Procedure, shortened: as §2
# [7] = tested on: KRas-mediated phosphorylation of ERK in HCT116 cells; assay: Inhibition of KRas-mediated phosphorylation of ERK (Cisbio HTRF pERK), HCT116 cells; assay type: cell-based; settings: Homo sapiens, HCT-116, HTRF pERK
# Procedure, shortened: as §3
# [8] = tested on: KRas-mediated phosphorylation of ERK in H358 cells; assay: Inhibition of KRas-mediated phosphorylation of ERK (Cisbio HTRF pERK), H358 cells; assay type: cell-based; settings: Homo sapiens, NCI-H358, HTRF pERK
# Procedure, shortened: as §2
# [9] = tested on: KRas-mediated phosphorylation of ERK in H2009 cells; assay: Inhibition of KRas-mediated phosphorylation of ERK (Cisbio HTRF pERK), H2009 cells; assay type: cell-based; settings: Homo sapiens, NCI-H2009
# Method: Inhibition of KRas Phosphorylation of ERK (HTRF) by Exemplary Compounds of Formula (I)
# Cisbio HTRF Advanced PERK Assay Catalog #64AERPEH
# 1. To harvest cells from flask using 0.05% Trypsin/EDTA solution. Add 10 mL of media to stop trypsinizing. Pipette the cells into a conical bottom 50 mL centrifuge tube and centrifuge 5 min×1000 rpm.
# 2. Re-suspend the cell pellet in media, take a cell count, and then adjust the cell density using fresh media.
# 3. Seed 6,000 cells into cell culture plate with 50 μL media. […]
# 4. Incubate cell plate overnight in a 37° C., 5% CO2 incubator.
# 1. Use Tecan to complete the compound addition. Compounds start from 10 uM top, 3-fold dilution, and 10 doses. The final DMSO concentration is 0.8%. Dispensed 0.2 uM Trametinib as Min control.
# 2. Incubate cell plate for 3 hrs in the incubator.
# Detection with Cisbio pERK HTRF Kit
# 1. Dilute 1 volume of 4× lysis buffer with 3 volumes of deionized water. Then, add 100× the blocking reagent. Keep lysis buffer on the ice.
# 2. At the end of the compound treatment, flick-off the media.
# 3. Add 35 μL of lysis buffer per well using a Multidrop Combi. Then place on a plate agitator shaking at 300 rpm at 4° C. for 40 mins.
# 4. Make up the HTRF antibody buffer. For each assay plate, mix 50 μL of d2-conjugate antibody with 950 μL of detection buffer. Similarly, mix 50 μL of Cryptate antibody with 950 μL of detection buffer. Then mix the two diluted antibodies together.
# 5. Dispense 3.4 μL the antibody buffer to wells of an empty assay plate. Seal the plate and centrifuge plate 30 sec×1000 rpm.
# 6. At the end of the 4° C. lysis, centrifuge the lysate plates 3 mins×1500 rpm.
# 7. Use the Bravo to transfer 13.6 μL of lysate from cell culture plate to assay plate. Then incubate assay plate for 2 hrs at room temperature.
# 8. At the end of incubation, read plate on the Envision after centrifuging plate 30 sec×1000 rpm.
# T8 sequence (P01116 1-169 isoform P01116-2 G13D): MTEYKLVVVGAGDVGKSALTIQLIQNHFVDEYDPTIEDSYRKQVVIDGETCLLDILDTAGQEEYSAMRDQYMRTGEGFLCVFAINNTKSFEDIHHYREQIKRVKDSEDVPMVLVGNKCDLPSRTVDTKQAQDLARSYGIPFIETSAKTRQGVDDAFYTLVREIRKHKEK
# T4 sequence (P01116 1-169 isoform P01116-2 G12D): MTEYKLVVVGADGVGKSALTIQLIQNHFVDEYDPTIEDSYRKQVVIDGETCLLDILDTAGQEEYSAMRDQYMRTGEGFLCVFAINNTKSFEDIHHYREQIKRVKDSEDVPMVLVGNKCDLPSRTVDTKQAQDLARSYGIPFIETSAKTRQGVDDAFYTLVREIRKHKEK
# T2 sequence (P01116 1-169 isoform P01116-2 G12A): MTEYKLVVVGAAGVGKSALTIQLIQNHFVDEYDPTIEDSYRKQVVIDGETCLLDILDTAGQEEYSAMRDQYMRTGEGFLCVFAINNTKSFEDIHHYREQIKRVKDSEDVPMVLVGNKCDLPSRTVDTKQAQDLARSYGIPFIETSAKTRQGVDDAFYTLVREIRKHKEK
# T9 sequence (P01116 1-169 isoform P01116-2 Q61H): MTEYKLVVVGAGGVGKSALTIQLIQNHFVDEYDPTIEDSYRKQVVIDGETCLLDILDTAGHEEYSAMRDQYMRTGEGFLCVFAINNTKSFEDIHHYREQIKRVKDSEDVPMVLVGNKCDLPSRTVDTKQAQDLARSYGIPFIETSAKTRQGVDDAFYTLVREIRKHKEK
# T6 sequence (P01116 1-169 isoform P01116-2 G12S): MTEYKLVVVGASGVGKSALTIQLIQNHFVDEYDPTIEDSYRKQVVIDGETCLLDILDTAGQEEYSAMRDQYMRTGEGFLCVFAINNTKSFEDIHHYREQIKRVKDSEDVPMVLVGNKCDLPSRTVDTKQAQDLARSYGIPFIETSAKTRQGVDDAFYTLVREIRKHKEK
# T7 sequence (P01116 1-169 isoform P01116-2 G12V): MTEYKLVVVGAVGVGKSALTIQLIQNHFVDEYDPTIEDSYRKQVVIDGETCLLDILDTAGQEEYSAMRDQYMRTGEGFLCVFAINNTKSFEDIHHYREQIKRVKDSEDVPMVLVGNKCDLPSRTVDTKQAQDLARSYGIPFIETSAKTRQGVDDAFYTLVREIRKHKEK
# T5 sequence (P01116 1-169 isoform P01116-2 G12R): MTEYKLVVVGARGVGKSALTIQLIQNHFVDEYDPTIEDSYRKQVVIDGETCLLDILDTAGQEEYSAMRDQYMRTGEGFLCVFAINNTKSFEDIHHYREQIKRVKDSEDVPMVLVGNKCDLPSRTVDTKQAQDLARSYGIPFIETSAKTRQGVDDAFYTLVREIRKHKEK
# T1 sequence (P01116 1-169 isoform P01116-2): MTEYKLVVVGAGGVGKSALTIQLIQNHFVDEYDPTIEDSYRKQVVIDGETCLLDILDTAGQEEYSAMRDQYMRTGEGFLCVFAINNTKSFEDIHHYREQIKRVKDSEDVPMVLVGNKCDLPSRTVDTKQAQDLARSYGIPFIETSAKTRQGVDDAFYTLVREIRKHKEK
# T3 sequence (P01116 1-169 isoform P01116-2 G12C): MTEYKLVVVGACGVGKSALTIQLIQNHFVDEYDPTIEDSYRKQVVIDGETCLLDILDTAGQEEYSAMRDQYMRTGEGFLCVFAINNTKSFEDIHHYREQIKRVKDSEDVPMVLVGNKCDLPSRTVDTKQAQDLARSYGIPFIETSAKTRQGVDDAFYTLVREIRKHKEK
IC50 (KRas^WT) [nM],IC50 (KRas^G12A) [nM],IC50 (KRas^G12C) [nM],IC50 (KRas^G12D) [nM],IC50 (KRas^G12R) [nM],IC50 (KRas^G12S) [nM],IC50 (KRas^G12V) [nM],IC50 (KRas^G13D) [nM],IC50 (KRas^Q61H) [nM],IC50 [1] [nM],IC50 [2] [nM],IC50 [3] [nM],IC50 [4] [nM],IC50 [5] [nM],IC50 [6] [nM],IC50 [7] [nM],IC50 [8] [nM],SMILES,IC50 [9] [nM]
11,9,7,5,12,8,6,7,12,24,> 10000,153,196,176,176,520,100,"C[C@@]1(O)CCCN(c2nc(OC[C@@]34CCCN3C[C@H](F)C4)nc3c(F)c(-c4c(C5CC5)c(Cl)cc5[nH]ncc45)ncc23)C1 [Example 880, (3R)-1-(7-(6-chloro-5-cyclopropyl-1H-indazol-4-yl)-8-fluoro-2-(((2R,7aS)-2-fluorotetrahydro-1H-pyrrolizin-7a(5H)-yl)methoxy)pyrido[4,3-d]pyrimidin-4-yl)-3-methylpiperidin-3-ol]",
13,9,5,2,8,5,3,15,15,521,> 10000,677,1300,> 10000,4460,7110,429,"CN(C)C(=O)c1cc2n(n1)CCCN(c1nc(OC[C@@]34CCCN3C[C@H](F)C4)nc3c(F)c(-c4c(C5CC5)c(Cl)cc5[nH]ncc45)ncc13)C2 [Example 882, 5-(7-(6-chloro-5-cyclopropyl-1H-indazol-4-yl)-8-fluoro-2-(((2R,7aS)-2-fluorotetrahydro-1H-pyrrolizin-7a(5H)-yl)methoxy)pyrido[4,3-d]pyrimidin-4-yl)-N,N-dimethyl-5,6,7,8-tetrahydro-4H-pyrazolo[1,5-a][1,4]diazepine-2-carboxamide]",
,,,,,,,,,,,2,1,1,1,1,0.4,"CCc1c(F)ccc2cc(O)cc(-c3ncc4c(N5C[C@@H]6C[C@H](C5)[C@H](O)C6)nc(OC[C@@]56CCCN5C/C(=C\F)C6)nc4c3F)c12 [Example 942, (1R,5R,6R)-3-(7-(8-ethyl-7-fluoro-3-hydroxynaphthalen-1-yl)-8-fluoro-2-(((S,Z)-2-(fluoromethylene)tetrahydro-1H-pyrrolizin-7a(5H)-yl)methoxy)pyrido[4,3-d]pyrimidin-4-yl)-3-azabicyclo[3.2.1]octan-6-ol]",1

SMILES,IC50 (KRas^WT) [nM],IC50 (KRas^G12A) [nM],IC50 (KRas^G12C) [nM],IC50 (KRas^G12D) [nM],IC50 (KRas^G12R) [nM],IC50 (KRas^G12S) [nM],IC50 (KRas^G12V) [nM],IC50 (KRas^G13D) [nM],IC50 (KRas^Q61H) [nM],IC50 [1] [nM],IC50 [2] [nM],IC50 [3] [nM],IC50 [4] [nM],IC50 [5] [nM],IC50 [6] [nM],IC50 [7] [nM],IC50 [8] [nM],IC50 [9] [nM]
"C[C@@H]1C[C@@H]1c1c(Cl)cc(O)cc1-c1ncc2c(N3C[C@H]4CC[C@@H](C3)N4)nc(OC[C@@]34CCCN3C/C(=C\F)C4)nc2c1F [Example 946, 3-(4-((1R,5S)-3,8-diazabicyclo[3.2.1]octan-3-yl)-8-fluoro-2-(((S,Z)-2-(fluoromethylene)tetrahydro-1H-pyrrolizin-7a(5H)-yl)methoxy)pyrido[4,3-d]pyrimidin-7-yl)-5-chloro-4-((1S,2R)-2-methylcyclopropyl)phenol]",,,,,,,,,,,,8,847,984,494,628,212,229
